Where “and” joins values, the source holds several entries; their conditions need not be identical. Equal entries are not always repeated.
Legend:
ecFolD = molecular target: T1, ecFolD (Escherichia coli, UniProt P24186); experiment: ecFolD cyclohydrolase (CYH) enzyme assay; assay type: biochemical, E. coli
T1 construct: His-tag (TEV-cleavable, vector pHis-TEV); made in house; host or cells: E. coli BL21 (DE3)
Experimental: (§1) (6R,S)-5,10-Methylene-5,6,7,8-tetrahydrofolic acid ((6R,S)-5,10-CH2-THF) calcium salt and (6R,S)-5,10-Methenyl-5,6,7,8-tetrahydrofolic acid ((6R,S)-5,10-CH=THF) chloride were purchased from Schircks Laboratories (Bauma, Switzerland) and used as substrates for FolD dehydrogenase and cyclohydrolase enzyme assays, respectively. Only the R-isomer, which accounts for 50% of (6R,S)-5,10-CH2-THF and (6R,S)-5,10-CH=THF, respectively, is used by the enzyme. (6R,S)-5,10-CH2-THF was dissolved in N2-spargeled basic buffer (50 mM Tris-HCl (pH 8.0), 100 mM β-mercaptoethanol) as described by Varshney et al.[25]. (6R,S)-5,10-CH=THF was dissolved in DMSO as a 100 mM stock solution.
(§2) Because FolD is a bifunctional enzyme, dehydrogenase and cyclohydrolase activities were determined for FolD enzyme kinetics, respectively. The dehydrogenase activity of FolD was assayed for its substrate 5,10-CH2-THF and cofactor NADP^+ (in the case of MTHFD2, NAD^+ was used as the cofactor) based on monitoring the formation of 5,10-CH=THF, while the cyclohydrolase activity of FolD was determined for its substrate 5,10-CH=THF by monitoring the hydrolysis of […]. The enzyme kinetics for the dehydrogenase activity of all FolDs except hsMTHFD1_DC were determined at 30 °C in 50 mM Tris-HCl (pH 7.5), 30 mM β-mercaptoethanol. The hsMTHFD1_DC dehydrogenase activity was measured in 25 mM MOPS (pH 7.3), 30 mM β-mercaptoethanol at 30 °C. […] To monitor the formation of 5,10-CH=THF, the absorbance of the reaction mixture was monitored at 350 nm in micro UV cuvettes (BRAND, Essex, Connecticut, USA). The concentration of 5,10-CH=THF produced in the reaction was determined using an extinction co-efficient of 0.0249 μM^−1 cm^−1. […] The consumption of 5,10-CH=THF was measured by recording the absorbance of the reactions at 355 nm using the TECAN Infinite 200 PRO equipped with a monochromator. […] The inhibition constants (K i) of carolacton on FolD were determined by measuring the apparent K m when adding certain amounts of carolacton to the enzyme reactions. […]

hsMTHFD1_DC = molecular target: T2, hsMTHFD1_DC (Homo sapiens, UniProt P11586); experiment: hsMTHFD1_DC cyclohydrolase (CYH) enzyme assay; assay type: biochemical; details: hsMTHFD1 DC301
T2 construct: hsMTHFD1 DC301; His-tag (TEV-cleavable, vector pHis-TEV); made in house; host or cells: E. coli BL21 (DE3)
T2 sequence (P11586 2-291 limits assumed): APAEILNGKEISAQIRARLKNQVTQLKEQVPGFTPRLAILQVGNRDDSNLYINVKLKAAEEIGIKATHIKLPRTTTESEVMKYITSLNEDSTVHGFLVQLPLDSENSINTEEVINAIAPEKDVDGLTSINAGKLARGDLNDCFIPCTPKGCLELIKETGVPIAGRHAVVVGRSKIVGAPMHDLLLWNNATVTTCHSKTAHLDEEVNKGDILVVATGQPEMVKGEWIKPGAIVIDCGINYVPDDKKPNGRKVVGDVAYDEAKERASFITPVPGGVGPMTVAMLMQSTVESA
Experimental: as §1, §2

L929 mouse cells = system: L929 mouse cells; design: method as in doi:10.1002/ejoc.200901126, PMID 20659313; details: cited from earlier work

Compound: CO[C@H](CC(=O)O)[C@@H](C)C(=O)[C@H](C)/C=C(\C)[C@H]1OC(=O)[C@H](O)[C@H](O)/C=C/[C@H](C)CCC[C@@H]1C [carolacton]
- IC50 (ecFolD): 49.8 nM
- Ki (ecFolD; Ki (5,10-CH=THF), carolacton inhibition on CYH activity, competitive vs substrate 5,10-CH=THF, from apparent KM): 32 nM and 31.6 nM
- IC80 (ecFolD; read-out: IC80, carolacton inhibition on CYH activity): 180 nM
- IC50 (hsMTHFD1_DC; 5 nM enzyme, read-out: IC50, carolacton inhibition on CYH activity): 19.4 nM
- IC80 (hsMTHFD1_DC; 5 nM enzyme, read-out: IC80, carolacton inhibition on CYH activity): 67.5 nM
- Ki (hsMTHFD1_DC; vs 5,10-CH=THF, read-out: Ki (5,10-CH=THF), carolacton inhibition on CYH activity): 20.6 nM
- acute toxicity to L929 mouse cells (L929 mouse cells): no acute toxicity

— PMC5688156, “The natural product carolacton inhibits folate-dependent C1 metabolism by targeting FolD/MTHFD” (Nature Communications, 2017)
